Ki data for 30 molecules are collected here from patent publication US20100056565A1, “Heterocyclic Derivatives as M3 Muscarinic Receptors” (priority 2007, published 2010).

Where a name gives a salt, the structure may show the parent alone.

T1 sequence (P20309 whole entry): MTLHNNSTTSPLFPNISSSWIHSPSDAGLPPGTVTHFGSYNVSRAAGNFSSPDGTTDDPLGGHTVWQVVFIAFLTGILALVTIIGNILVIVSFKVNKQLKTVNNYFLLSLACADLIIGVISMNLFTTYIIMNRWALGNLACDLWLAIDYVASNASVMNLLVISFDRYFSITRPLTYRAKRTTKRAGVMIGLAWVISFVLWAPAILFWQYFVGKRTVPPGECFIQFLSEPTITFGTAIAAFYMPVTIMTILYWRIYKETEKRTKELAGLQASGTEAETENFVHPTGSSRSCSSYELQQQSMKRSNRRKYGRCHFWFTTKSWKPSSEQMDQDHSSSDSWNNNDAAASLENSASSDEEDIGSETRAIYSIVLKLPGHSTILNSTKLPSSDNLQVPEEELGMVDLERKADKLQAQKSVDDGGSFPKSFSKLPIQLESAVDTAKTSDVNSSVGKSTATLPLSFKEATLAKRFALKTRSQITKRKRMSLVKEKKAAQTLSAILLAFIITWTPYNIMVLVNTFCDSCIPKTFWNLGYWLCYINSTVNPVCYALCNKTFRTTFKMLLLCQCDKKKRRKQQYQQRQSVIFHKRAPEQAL

The assay has as its target T1, Recombinant human M3 receptor (Homo sapiens, UniProt P20309).
T1 construct: expressed in transfected cells; host or cells: CHO-K1 cells (membranes)
Put plainly: biochemical. Type of assay: binding. As to conditions: SPA format; read-out: M3 Ki (SPA format). The protocol: Recombinant human M3 receptor was expressed in CHO-K1 cells. Cell membranes were prepared and binding of [3H]-N-methyl scopolamine ([3H]-NMS) and compounds was assessed by a scintillation proximity assay (SPA). The incubation time was 16 hours at room temperature in the presence of 1% (v/v) DMSO. The assay was performed in white 96 well clear-bottomed NBS plates (Corning). Prior to the assay, the CHO cell membranes containing M3 receptor were coated onto SPA WGA (Wheat germ agglutinin) beads (GE Healthcare). Non specific binding was determined in the presence of 1 μM Atropine.
Radioactivity was measured on a Microbeta scintillation counter (PerkinElmer) using a 3H protocol with a 2 minutes per well read time. […] Concentration dependent inhibition of [3H]-NMS binding by compounds was expressed as pIC50.
For orientation: Ki means the dissociation constant of the complex between target and ligand, obtained from inhibition or displacement. In the case of `O[C@](c1ccccc1)(c1ncc(C[N+]23CCC(CC2)C(OCc2ccccc2)C3)o1)C1CCCCC1` (stereo partly drawn) [Example 16, 3-benzyloxy-1-[2-((R)-cyclohexyl-hydroxy-phenyl-methyl)-oxazol-5-ylmethyl]-1-azonia-bicyclo[2.2.2]octane; formate], the Ki is under 5 nM. Take `OC(c1ccccc1)(c1ccccc1)c1noc(C[N+]23CCC(CC2)[C@@H](Oc2ccc(Cl)cc2)C3)n1` [Example 136, (R)-3-(4-Chloro-phenoxy)-1-[3-(hydroxy-diphenyl-methyl)-[1,2,4]oxadiazol-5-ylmethyl]-1-azonia-bicyclo[2.2.2]octane; chloride]: the Ki is under 5 nM. With `OC(c1ccccc1)(c1cc(C[N+]23CCC(CC2)C(COc2ccccc2)C3)on1)C1CCCCC1` (single isomer, unassigned) [Example 91] the figure was under 5 nM. On to `O[C@](c1ccccc1)(c1nnc(C[N+]23CCC(CC2)[C@@H](Sc2ccccc2)C3)o1)C1CCCCC1` [Example 71, 1-[5-((R)—Cyclohexyl-hydroxy-phenyl-methyl)-[1,3,4]oxadiazol-2-ylmethyl]-3-phenylsulfanyl-1-azonia-bicyclo[2.2.2]octane; bromide], for which the Ki was under 5 nM. Regarding `OC(c1ccccc1)(c1cc(C[N+]23CCC(CC2)C(CSc2ccc(F)cc2)C3)on1)C1CCCCC1` (single isomer, unassigned) [Example 125], the Ki was in the range of 5 to 20 nM. With `O=C(N[C@H]1C[N+]2(Cc3cnc([C@](O)(c4ccccc4)C4CCCCC4)o3)CCC1CC2)c1ccccc1` [Example 13, (R)-3-benzoylamino-1-[2-((R)-cyclohexyl-hydroxy-phenyl-methyl)-oxazol-5-ylmethyl]-1-azonia-bicyclo[2.2.2]octane; formate] the figure was over 20 nM; with `OC(c1ccccc1)(c1ccccc1)c1noc(C[N+]23CCC(CC2)[C@@H](Oc2cccc(C(F)(F)F)c2)C3)n1` [Example 137, (R)-1-[3-(Hydroxy-diphenyl-methyl)-[1,2,4]oxadiazol-5-ylmethyl]-3-(3-trifluoromethyl-phenoxy)-1-azonia-bicyclo[2.2.2]octane; chloride], under 5 nM; with `OC(c1ccccc1)(c1ccccc1)c1noc(C[N+]23CCC(CC2)[C@@H](Oc2cccc(F)c2)C3)n1` [Example 94, (R)-3-(3-Fluoro-phenoxy)-1-[3-(hydroxy-diphenyl-methyl)-[1,2,4]oxadiazol-5-ylmethyl]-1-azonia-bicyclo[2.2.2]octane; chloride], under 5 nM. For the molecule `O[C@](c1ccccc1)(c1ncc(C[N+]23CCC(CC2)[C@@H](CSc2ccc(Cl)cc2)C3)o1)C1CCCCC1` [Example 107, (R)-3-(4-Chloro-phenylsulfanylmethyl)-1-[2-(R)cyclohexyl-hydroxy-phenyl-methyl)-oxazol-5-ylmethyl]-1-azonia-bicyclo[2.2.2]octane; bromide], the Ki was under 5 nM. With `OC(c1ccccc1)(c1ncc(C[N+]23CCC(CC2)[C@@H](OCc2ccccc2)C3)o1)C1CCCCCCC1` (single isomer, unassigned) [Example 48, formate], the Ki is under 5 nM.

On to `OC(c1ccccc1)(c1cc(C[N+]23CCC(CC2)[C@@H](OCc2ccccc2)C3)on1)C1CCCCC1` (single isomer, unassigned) [Example 31, formate], for which the Ki was under 5 nM.

In the case of `C=C(C)CO[C@H]1C[N+]2(Cc3cnc([C@](O)(c4ccccc4)C4CCCCC4)o3)CCC1CC2` [Example 112, (R)-1-[2-((R)—Cyclohexyl-hydroxy-phenyl-methyl)-oxazol-5-ylmethyl]-3-(2-methyl-allyloxy)-1-azonia-bicyclo[2.2.2]octane; bromide], the inhibition constant (Ki) was under 5 nM. As for `OC(c1ccccc1)(c1ccccc1)c1ncc(C[N+]23CCC(CC2)[C@@H](OCc2cccc(F)c2)C3)o1` [Example 49, (R)-3-(3-fluoro-benzyloxy)-1-[2-(hydroxy-diphenyl-methyl)-oxazol-5-ylmethyl]-1-azonia-bicyclo[2.2.2]octane; formate], the Ki was under 5 nM. In the case of `OC(c1ccccc1)(c1ccccc1)c1ncc(C[N+]23CCC(CC2)[C@@H](Sc2ccccc2)C3)o1` [Example 68, 1-[2-(Hydroxy-diphenyl-methyl)-oxazol-5-ylmethyl]-3-phenylsulfanyl-1-azonia-bicyclo[2.2.2]octane; bromide], the Ki was under 5 nM.

Regarding `O[C@](c1ccccc1)(c1ncc(C[N+]23CCC(CC2)[C@@H](OC2CCCCO2)C3)o1)C1CCCCC1` (stereo partly drawn) [Example 96, (R)-1-[2-((R)—Cyclohexyl-hydroxy-phenyl-methyl)-oxazol-5-ylmethyl]-3-(tetrahydro-pyran-2-yloxy)-1-azonia-bicyclo[2.2.2]octane; bromide], the Ki is under 5 nM. As to `O[C@](c1ccccc1)(c1ncc(C[N+]23CCC(CC2)[C@H](CSc2cccc(F)c2)C3)o1)C1CCCCC1` [Example 111, (S)-1-[2-((R)—Cyclohexyl-hydroxy-phenyl-methyl)-oxazol-5-ylmethyl]-3-(3-fluoro-phenylsulfanylmethyl)-1-azonia-bicyclo[2.2.2]octane; bromide], the Ki was under 5 nM. As to `O[C@](c1ccccc1)(c1ncc(C[N+]23CCC(CC2)C(COc2cccc(F)c2)C3)o1)C1CCCCC1` (single isomer, unassigned) [Example 81], the Ki was under 5 nM. For the molecule `CC(C)CS[C@H]1C[N+]2(Cc3cnc([C@](O)(c4ccccc4)C4CCCCC4)o3)CCC1CC2` [Example 120, (R)-1-[2-((R)—Cyclohexyl-hydroxy-phenyl-methyl)-oxazol-5-ylmethyl]-3-isobutylsulfanyl-1-azonia-bicyclo[2.2.2]octane; bromide], the Ki is under 5 nM. In the case of `Cc1ccc(O[C@H]2C[N+]3(Cc4cnc([C@](O)(c5ccccc5)C5CCCCC5)o4)CCC2CC3)cc1Cl` [Example 60, (R)-3-(3-Chloro-4-methyl-phenoxy)-1-[2-((R)-cyclohexyl-hydroxy-phenyl-methyl)-oxazol-5-ylmethyl]-1-azonia-bicyclo[2.2.2]octane; bromide], the Ki is under 5 nM. With `OC(c1ccccc1)(c1cc(C[N+]23CCC(CC2)[C@@H](CSc2ccccc2)C3)on1)C1CCCCC1` (single isomer, unassigned) [Example 124], the Ki was under 5 nM. For `O[C@](c1ccccc1)(c1ncc(C[N+]23CCC(CC2)[C@@H](Oc2cccc(Cl)c2)C3)o1)C1CCCCC1` [Example 65, (R)-3-(3-Chloro-phenoxy)-1-[2-((R)-cyclohexyl-hydroxy-phenyl-methyl)-oxazol-5-ylmethyl]-1-azonia-bicyclo[2.2.2]octane; bromide], the Ki is under 5 nM.

Regarding `O=C(N[C@@H]1C[N+]2(Cc3cnc([C@](O)(c4ccccc4)C4CCCCC4)o3)CCC1CC2)c1ccc(Cl)cc1` [Example 19, (S)-3-(4-chloro-benzoylamino)-1-[2-((R)-cyclohexyl-hydroxy-phenyl-methyl)-oxazol-5-ylmethyl]-1-azonia-bicyclo[2.2.2]octane; formate], the Ki was under 5 nM. As for `OC(c1ccccc1)(c1ccccc1)c1ncc(C[N+]23CCC(CC2)[C@@H](Oc2ccc(C(F)(F)F)cc2)C3)o1` [Example 57, (R)-1-[2-(Hydroxy-diphenyl-methyl)-oxazol-5-ylmethyl]-3-(4-trifluoromethyl-phenoxy)-1-azonia-bicyclo[2.2.2]octane; bromide], the Ki was in the range of 5 to 20 nM. Consider `O[C@](c1ccccc1)(c1ncc(C[N+]23CCC(CC2)[C@@H](OCc2ccccc2F)C3)o1)C1CCCCC1` [Example 52, (R)-1-[2-((R)-cyclohexyl-hydroxy-phenyl-methyl)-oxazol-5-ylmethyl]-3-(2-fluoro-benzyloxy)-1-azonia-bicyclo[2.2.2]octane; formate], for which the Ki was under 5 nM. As to `Cc1ccc(O[C@H]2C[N+]3(Cc4cnc(C(O)(c5ccccc5)c5ccccc5)o4)CCC2CC3)cc1Cl` [Example 59, (R)-3-(3-Chloro-4-methyl-phenoxy)-1-[2-(hydroxy-diphenyl-methyl)-oxazol-5-ylmethyl]-1-azonia-bicyclo[2.2.2]octane; bromide], the Ki is under 5 nM. For the molecule `OC(c1ccccc1)(c1ccccc1)c1ncc(C[N+]23CCC(CC2)[C@@H](Oc2cccs2)C3)o1` [Example 102, (R)-1-[2-(Hydroxy-diphenyl-methyl)-oxazol-5-ylmethyl]-3-(thiophen-2-yloxy)-1-azonia-bicyclo[2.2.2]octane; bromide], the inhibitory constant (Ki) was in the range of 5 to 20 nM. Consider `O[C@](c1ccccc1)(c1ncc(C[N+]23CCC(CC2)[C@H](CSc2ccccc2)C3)o1)C1CCCCC1` [Example 43, (S)-1-[2-((R)—Cyclohexyl-hydroxy-phenyl-methyl)-oxazol-5-ylmethyl]-3-phenylsulfanylmethyl-1-azonia-bicyclo[2.2.2]octane; bromide], for which the Ki was under 5 nM.

Regarding `OC(c1ccccc1)(c1ccccc1)c1ncc(C[N+]23CCC(CC2)[C@@H](Oc2cccc(F)c2)C3)o1` [Example 73, (R)-3-(3-Fluoro-phenoxy)-1-[2-(hydroxy-diphenyl-methyl)-oxazol-5-ylmethyl]-1-azonia-bicyclo[2.2.2]octane; bromide], the Ki was under 5 nM. As to `O[C@](c1ccccc1)(c1ncc(C[N+]23CCC(CC2)[C@@H](OCc2cccc(F)c2)C3)o1)C1CCCCC1` [Example 35, (R)-1-[2-((R)-cyclohexyl-hydroxy-phenyl-methyl)-oxazol-5-ylmethyl]-3-(3-fluoro-benzyloxy)-1-azonia-bicyclo[2.2.2]octane; formate], the Ki was under 5 nM.

Turning to `O[C@](c1ccccc1)(c1ncc(C[N+]23CCC(CC2)[C@@H](Oc2ccc(Cl)cc2)C3)o1)C1CCCCC1` [Example 64, (R)-3-(4-Chloro-phenoxy)-1-[2-((R)-cyclohexyl-hydroxy-phenyl-methyl)-oxazol-5-ylmethyl]-1-azonia-bicyclo[2.2.2]octane; bromide], the Ki was under 5 nM.
